Laboratory results reported in patent EP2121694B1, “CYCLOPROPYL FUSED INDOLOBENZAZEPINE HCV NS5B INHIBITORS” (Bristol-Myers Squibb Company, priority 2007, dated 2008).

Target: T1, HCV NS5B (Hepatitis C virus genotype 1b, UniProt Q9WMX2)
T1 construct: The protein was expressed with an 18 amino acid C-terminal truncation to enhance the solubility; made in house; host or cells: E. coli BL21(DE3), pET21a vector
Assay: Modified HCV NS5B RdRp enzyme assay (preincubation protocol)
Assay type: biochemical
Details: HCV NS5B RdRp genotype 1b
Experimental: HCV NS5B RdRp cloning, expression, and purification. The cDNA encoding the NS5B protein of HCV, genotype 1b, was cloned into the pET21a expression vector. The protein was expressed with an 18 amino acid C-terminal truncation to enhance the solubility. The E. coli competent cell line BL21(DE3) was used for expression of the protein. Cultures were grown at 37 °C for ∼ 4 hours until the cultures reached an optical density of 2.0 at 600 nm. The cultures were cooled to 20 °C and induced with 1 mM IPTG. Fresh ampicillin was added to a final concentration of 50 µg/ml and the cells were grown overnight at 20 °C.
Cell pellets (3L) were lysed for purification to yield 15-24 mgs of purified NS5B. The lysis buffer consisted of 20 mM Tris-HCl, pH 7.4, 500 mM NaCl, 0.5% triton X-100, 1 mM DTT, 1mM EDTA, 20% glycerol, 0.5 mg/ml lysozyme, 10 mM MgCl2, 15 ug/ml deoxyribonuclease I, and Complete TM protease inhibitor tablets (Roche). After addition of the lysis buffer, frozen cell pellets were resuspended using a tissue homogenizer. To reduce the viscosity of the sample, aliquots of the lysate were sonicated on ice using a microtip attached to a Branson sonicator. The sonicated lysate was centrifuged at 100,000 x g for 1hr at 4 °C and filtered through a 0.2 µm filter unit (Corning).
The protein was purified using three sequential chromatography steps: Heparin sepharose CL-6B, polyU sepharose 4B, and Hitrap SP sepharose (Pharmacia). The chromatography buffers were identical to the lysis buffer but contained no lysozyme, deoxyribonuclease I, MgCl2 or protease inhibitor and the NaCl concentration of the buffer was adjusted according to the requirements for charging the protein onto the column. Each column was eluted with a NaCl gradient which varied in length from 5-50 column volumes depending on the column type. After the final chromatography step, the resulting purity of the enzyme is >90% based on SDS-PAGE analysis. The enzyme was aliquoted and stored at -80 °C.
Standard HCV NS5B RdRp enzyme assay. HCV RdRp genotype 1b assays were run in a final volume of 60 µl in 96 well plates (Costar 3912). The assay buffer is composed of 20 mM Hepes, pH 7.5, 2.5 mM KCl, 2.5 mM MgCl2, 1 mM DTT, 1.6 U RNAse inhibitor (Promega N2515), 0.1 mg/ml BSA (Promega R3961), and 2 % glycerol. All compounds were serially diluted (3-fold) in DMSO and diluted further in water such that the final concentration of DMSO in the assay was 2%. HCV RdRp genotype 1b enzyme was used at a final concentration of 28 nM. A polyA template was used at 6 nM, and a biotinylated oligo-dT12 primer was used at 180 nM final concentration. Template was obtained commercially (Amersham 27-4110). Biotinylated primer was prepared by Sigma Genosys. 3H-UTP was used at 0.6 µCi (0.29 µM total UTP). Reactions were initiated by the addition of enzyme, incubated at 30 °C for 60 min, and stopped by adding 25 µl of 50 mM EDTA containing SPA beads (4 µg/µl, Amersham RPNQ 0007). Plates were read on a Packard Top Count NXT after >1hr incubation at room temperature.
Modified HCV NS5B RdRp enzyme assay. A modified enzyme assay was performed essentially as described for the standard enzyme assay except for the following: The biotinylated oligo dT12 primer was precaptured on streptavidin-coated SPA beads by mixing primer and beads in assay buffer and incubating at room temperature for one hour. Unbound primer was removed after centrifugation. The primer-bound beads were resuspended in 20 mM Hepes buffer, pH 7.5 and used in the assay at final concentrations of 20 nM primer and 0.67 µg/µl beads. Order of addition in the assay: enzyme (14 nM) was added to diluted compound followed by the addition of a mixture of template (0.2 nM) , 3H-UTP (0.6 µCi, 0.29 µM), and primer-bound beads, to initiate the reaction; concentrations given are final. Reactions were allowed to proceed for 4 hours at 30° C.
IC50 values for compounds were determined using seven different [I]. […]

T1 sequence (Q9WMX2 2420-2992): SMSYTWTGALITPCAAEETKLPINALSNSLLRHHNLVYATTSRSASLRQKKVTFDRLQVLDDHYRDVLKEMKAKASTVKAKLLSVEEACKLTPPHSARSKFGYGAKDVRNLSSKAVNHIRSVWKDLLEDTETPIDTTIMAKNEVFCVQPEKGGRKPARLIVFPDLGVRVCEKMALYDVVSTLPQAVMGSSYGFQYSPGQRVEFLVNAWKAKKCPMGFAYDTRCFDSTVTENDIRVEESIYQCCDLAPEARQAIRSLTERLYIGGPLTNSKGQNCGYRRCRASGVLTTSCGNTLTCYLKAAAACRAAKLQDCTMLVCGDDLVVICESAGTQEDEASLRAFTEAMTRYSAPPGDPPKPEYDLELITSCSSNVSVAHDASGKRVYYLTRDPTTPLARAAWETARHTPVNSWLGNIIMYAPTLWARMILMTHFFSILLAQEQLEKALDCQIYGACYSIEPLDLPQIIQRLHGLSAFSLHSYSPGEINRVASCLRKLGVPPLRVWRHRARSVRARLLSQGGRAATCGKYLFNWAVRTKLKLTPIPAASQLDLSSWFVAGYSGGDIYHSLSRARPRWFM

SMILES	IC50 [µM]
COc1ccc2c(c1)C1CC1(C(=O)N1CCC(C)(O)CC1)Cn1c-2c(C2CCCCC2)c2ccc(C(=O)NS(=O)(=O)N(C)C)cc21 (stereo not drawn)	0.097 to 1
COc1ccc2c(c1)C1CC1(C(=O)N1CC[C@H](N(C)C)C1)Cn1c-2c(C2CCCCC2)c2ccc(C(=O)NS(=O)(=O)N(C)C)cc21 (stereo partly drawn)	0.097 to 1
COc1ccc2c(c1)C1CC1(C(=O)N1CCCN(C)CC1)Cn1c-2c(C2CCCCC2)c2ccc(C(=O)NS(=O)(=O)C3CC3)cc21 (stereo not drawn)	0.097 to 1
C[C@@H]1CN(C(=O)C23CC2c2c(OC(F)(F)F)cccc2-c2c(C4CCCCC4)c4ccc(C(=O)NS(=O)(=O)N(C)C)cc4n2C3)C[C@H](C)O1 (stereo partly drawn)	0.097 to 1
CCN(CC)CCN1CCCN(C(=O)C23CC2c2cc(OC)ccc2-c2c(C4CCCCC4)c4ccc(C(=O)NS(=O)(=O)N(C)C)cc4n2C3)CC1 (stereo not drawn)	0.097 to 1
COc1ccc2c(c1)C1CC1(C(=O)N1CCOC[C@H]1C)Cn1c-2c(C2CCCCC2)c2ccc(C(=O)NS(=O)(=O)N(C)C)cc21 (stereo partly drawn)	0.097 to 1
COc1ccc2c(c1)C1CC1(C(=O)N1CCCCC1CN(C)C)Cn1c-2c(C2CCCCC2)c2ccc(C(=O)NS(=O)(=O)N(C)C)cc21 (stereo not drawn) [drawing 49]	0.097 to 1
COc1ccc2c(c1)C1CC1(C(=O)N1CC[C@@H](N(C)C)C1)Cn1c-2c(C2CCCCC2)c2ccc(C(=O)NS(=O)(=O)N(C)C)cc21 (stereo partly drawn)	0.097 to 1
COc1ccc2c(c1)C1CC1(C(=O)N1CCOC[C@H]1CO)Cn1c-2c(C2CCCCC2)c2ccc(C(=O)NS(=O)(=O)N(C)C)cc21 (stereo partly drawn)	0.097 to 1
COc1ccc2c(c1)C1CC1(C(=O)N1CCN(c3ccccn3)CC1)Cn1c-2c(C2CCCCC2)c2ccc(C(=O)NS(=O)(=O)C3CC3)cc21 (stereo not drawn)	0.097 to 1
COc1ccc2c(c1)C1CC1(C(=O)N1CC[C@H](N(C)C)C1)Cn1c-2c(C2CCCCC2)c2ccc(C(=O)NS(=O)(=O)C3CC3)cc21 (stereo partly drawn)	0.097 to 1
CCN(CC)CCN(C)C(=O)C12CC1c1cc(OC)ccc1-c1c(C3CCCCC3)c3ccc(C(=O)NS(=O)(=O)N(C)C)cc3n1C2 (stereo not drawn)	0.097 to 1
COc1ccc2c(c1)[C@@H]1C[C@]1(C(=O)O)Cn1c-2c(C2CCCCC2)c2ccc(C(=O)NS(=O)(=O)N(C)C)cc21	0.097 to 1
COc1ccc2c(c1)C1CC1(C(=O)N1CCOC[C@H]1CN)Cn1c-2c(C2CCCCC2)c2ccc(C(=O)NS(=O)(=O)N(C)C)cc21 (stereo partly drawn)	0.097 to 1
COc1cccc2c1C1CC1(C(=O)N1C[C@@H](C)N[C@@H](C)C1)Cn1c-2c(C2CCCCC2)c2ccc(C(=O)NS(=O)(=O)N(C)C)cc21 (stereo partly drawn)	0.097 to 1

Tested on: HCV replicon
Assay: HCV FRET screening assay in HCV replicon cells
Assay type: cell-based
Details: Hepatitis C virus
Excerpt: FRET Assay Preparation. To perform the HCV FRET screening assay, 96-well cell culture plates were used. The FRET peptide (Anaspec, Inc.) (Taliani et al., Anal. Biochem. 1996, 240, 60-67) contains a fluorescence donor, EDANS, near one end of the peptide and an acceptor, DABCYL, near the other end. The fluorescence of the peptide is quenched by […] resonance energy transfer (RET) between the donor and the acceptor, but as the NS3 protease cleaves the peptide the products are released from RET quenching and the fluorescence of the donor becomes apparent. The assay reagent was made as follows: 5X cell Luciferase cell culture lysis reagent from Promega (#E153A) diluted to 1X with dH2O, NaCl added to 150 mM final, the FRET peptide diluted to 20 uM final from a 2 mM stock.
To prepare plates, HCV replicon cells, with or without a Renilla luciferase reporter gene, were trypsinized and placed into each well of a 96-well plate with titrated test compounds added in columns 3 through 12; columns 1 and 2 contained a control compound (HCV protease inhibitor), and the bottom row contained cells without compound. The plates were then placed in a CO2 incubator at 37 °C.
Assays. Subsequent to addition of the test compounds described above (FRET Assay Preparation), at various times the plate was removed and Alamar blue solution (Trek Diagnostics, #00-100) was added per well as a measure of cellular toxicity. After reading in a Cytoflour 4000 instrument (PE Biosystems), plates were rinsed with PBS and then used for FRET assay by the addition of 30 ul of the FRET peptide assay reagent described above (FRET Assay Preparation) per well. The plate was then placed into the Cytoflour 4000 instrument which had been set to 340 excite/490 emission, automatic mode for 20 cycles and the plate read in a kinetic mode. Typically, the signal to noise using an endpoint analysis after the reads was at least three-fold. Alternatively, after Alamar blue reading, plates were rinsed with PBS, 50 ul of DMEM (high glucose) without phenol red was added and plates were then used for luciferase assay using the Promega Dual-Glo Luciferase Assay System.
Compound analysis was determined by quantification of the relative HCV replicon inhibition and the relative cytotoxicity values. To calculate cytoxicity values, the average Alamar Blue fluorescence signals from the control wells were set as 100% non-toxic. The individual signals in each of the compound test wells were then divided by the average control signal and multiplied by 100% to determine […]. To calculate the HCV replicon inhibition values, an average background value was obtained from the two wells containing the highest amount of HCV protease inhibitor at the end of the assay period. These numbers were similar to those obtained from naïve Huh-7 cells.
The background numbers were then subtracted from the average signal obtained from the control wells and this number was used as 100% activity. The individual signals in each of the compound test wells were then divided by the averaged control values after background subtraction and multiplied by 100% to determine percent activity. EC50 values for a protease inhibitor titration were calculated as the concentration which caused a 50% reduction in FRET or luciferase activity. The two numbers generated for the compound plate, percent cytoxicity and percent activity were used to determine compounds of interest for further analysis.

SMILES	EC50 [µM]
COc1ccc2c(c1)[C@@H]1C[C@]1(C(=O)O)Cn1c-2c(C2CCCCC2)c2ccc(C(=O)NS(=O)(=O)N(C)C)cc21	1 to 10

Same assay, conditions: Hepatitis C virus, HCV replicon cells, FRET assay; read-out: EC50

SMILES	EC50 [µM]
COc1ccc2c(c1)C1CC1(C(=O)N1CCC(C)(O)CC1)Cn1c-2c(C2CCCCC2)c2ccc(C(=O)NS(=O)(=O)N(C)C)cc21 (stereo not drawn)	0.097 to 1
COc1ccc2c(c1)C1CC1(C(=O)N1CC[C@H](N(C)C)C1)Cn1c-2c(C2CCCCC2)c2ccc(C(=O)NS(=O)(=O)N(C)C)cc21 (stereo partly drawn)	0.097 to 1
COc1ccc2c(c1)C1CC1(C(=O)N1CCCN(C)CC1)Cn1c-2c(C2CCCCC2)c2ccc(C(=O)NS(=O)(=O)C3CC3)cc21 (stereo not drawn)	0.097 to 1
C[C@@H]1CN(C(=O)C23CC2c2c(OC(F)(F)F)cccc2-c2c(C4CCCCC4)c4ccc(C(=O)NS(=O)(=O)N(C)C)cc4n2C3)C[C@H](C)O1 (stereo partly drawn)	0.097 to 1
CCN(CC)CCN1CCCN(C(=O)C23CC2c2cc(OC)ccc2-c2c(C4CCCCC4)c4ccc(C(=O)NS(=O)(=O)N(C)C)cc4n2C3)CC1 (stereo not drawn)	0.097 to 1
COc1ccc2c(c1)C1CC1(C(=O)N1CCOC[C@H]1C)Cn1c-2c(C2CCCCC2)c2ccc(C(=O)NS(=O)(=O)N(C)C)cc21 (stereo partly drawn)	0.097 to 1
COc1ccc2c(c1)C1CC1(C(=O)N1CCCCC1CN(C)C)Cn1c-2c(C2CCCCC2)c2ccc(C(=O)NS(=O)(=O)N(C)C)cc21 (stereo not drawn) [drawing 49]	0.097 to 1
COc1ccc2c(c1)C1CC1(C(=O)N1CC[C@@H](N(C)C)C1)Cn1c-2c(C2CCCCC2)c2ccc(C(=O)NS(=O)(=O)N(C)C)cc21 (stereo partly drawn)	0.097 to 1
COc1ccc2c(c1)C1CC1(C(=O)N1CCOC[C@H]1CO)Cn1c-2c(C2CCCCC2)c2ccc(C(=O)NS(=O)(=O)N(C)C)cc21 (stereo partly drawn)	0.097 to 1
COc1ccc2c(c1)C1CC1(C(=O)N1CCN(c3ccccn3)CC1)Cn1c-2c(C2CCCCC2)c2ccc(C(=O)NS(=O)(=O)C3CC3)cc21 (stereo not drawn)	0.097 to 1
COc1ccc2c(c1)C1CC1(C(=O)N1CC[C@H](N(C)C)C1)Cn1c-2c(C2CCCCC2)c2ccc(C(=O)NS(=O)(=O)C3CC3)cc21 (stereo partly drawn)	0.097 to 1
CCN(CC)CCN(C)C(=O)C12CC1c1cc(OC)ccc1-c1c(C3CCCCC3)c3ccc(C(=O)NS(=O)(=O)N(C)C)cc3n1C2 (stereo not drawn)	0.097 to 1
COc1ccc2c(c1)C1CC1(C(=O)N1CCOC[C@H]1CN)Cn1c-2c(C2CCCCC2)c2ccc(C(=O)NS(=O)(=O)N(C)C)cc21 (stereo partly drawn)	0.097 to 1
COc1cccc2c1C1CC1(C(=O)N1C[C@@H](C)N[C@@H](C)C1)Cn1c-2c(C2CCCCC2)c2ccc(C(=O)NS(=O)(=O)N(C)C)cc21 (stereo partly drawn)	0.097 to 1
